Test results taken from US20240148821A1, “PHARMACEUTICAL USE OF CYCLIC PEPTIDE COMPOUND” (CHUGAI SEIYAKU KABUSHIKI KAISHA, priority 2021, published 2024).
Bridge positions count the residues as written; N and C are the ends. Square brackets hold non-standard residues; d marks the D form. Peptide text beside a SMILES is read from it. * marks the point of attachment. NMeAbu(3,3-F2-piperidino) = CN[C@@H](CCN1CCCC(F)(F)C1)C(=O)O; hPhe(3-Cl-4-CF3) = N[C@@H](CCc1ccc(C(F)(F)F)c(Cl)c1)C(=O)O; Phe(2-OCF3) = N[C@@H](Cc1ccccc1OC(F)(F)F)C(=O)O; NMePhe(3-CN) = CN[C@@H](Cc1cccc(C#N)c1)C(=O)O; NMePhe(4-Cl) = CN[C@@H](Cc1ccc(Cl)cc1)C(=O)O; NMePhe(4-Me) = CN[C@@H](Cc1ccc(C)cc1)C(=O)O; NMeAla(cPent) = CN[C@@H](CC1CCCC1)C(=O)O; NMeGly(cPent) = CN[C@H](C(=O)O)C1CCCC1; Phe(3-I) = N[C@@H](Cc1cccc(I)c1)C(=O)O; NMeCha = CN[C@@H](CC1CCCCC1)C(=O)O; NMeF = CN[C@@H](Cc1ccccc1)C(=O)O; NMeI = CC[C@H](C)[C@H](NC)C(=O)O; hPhe = N[C@@H](CCc1ccccc1)C(=O)O; NMeD = CN[C@@H](CC(=O)O)C(=O)O; NMeL = CN[C@@H](CC(C)C)C(=O)O; NMeV = CN[C@H](C(=O)O)C(C)C; d(β3hA) = C[C@@H](N)CC(=O)O; NMeA = CN[C@@H](C)C(=O)O; NMeAib = CNC(C)(C)C(=O)O; Piperidide = C1CCN(*)CC1; Ac5c = NC1(C(=O)O)CCCC1; Aze = O=C(O)[C@@H]1CCN1; Sar = CNCC(=O)O

system: Human pancreatic cancer cell line AsPC-1 (G12D mutation Kras); experiment: AsPC-1 cell growth inhibition (AsPC-1 CGI); format: cell-based; details: read-out: AsPC-1 cell growth inhibition, 50% growth inhibitory concentration (IC50 value); 96 hours, CellTiter-Glo, values classified in ranges
Method: Test compounds were serially dilated with dimethyl sulfoxide, and 200 nL was then dispensed to a U-bottom 96-well plate using Labcyte Echo. […] The cell suspension was dispensed to a. plate containing a test compound at 100 μL per well and incubated at 37° C. in a 5% carbon dioxide gas incubator. 96 hours later, 80 μL of CellTiter-Glo (Promega) was added to each well and fluorescence was measured.

Row | SMILES | IC50
1 | CC[C@H](C)[C@@H]1NC(=O)[C@H](CC2CCCC2)N(C)C(=O)C[C@@H](C(=O)N(C)C)N(C)C(=O)[C@H]([C@@H](C)CC)N(C)C(=O)C2(CCCC2)NC(=O)[C@@H]2CCCN2C(=O)[C@H](CCc2ccc(C(F)(F)F)c(Cl)c2)NC(=O)CN(C)C(=O)[C@H](Cc2ccc(C)cc2)N(C)C(=O)[C@@H]2CCN2C(=O)[C@H](C)NC1=O [Compound 1141] ([NMeAla(cPent)]IA[Aze][NMePhe(4-Me)][Sar][hPhe(3-Cl-4-CF3)]P[Ac5c][NMeI][NMeD]-NMe2; lactam N-11) | ≤ 0.02 µM
2 | CC[C@H](C)[C@@H]1NC(=O)[C@H](CC(C)C)N(C)C(=O)C[C@@H](C)NC(=O)[C@H](CC(C)C)N(C)C(=O)C2(CCCC2)NC(=O)[C@@H]2CCCN2C(=O)[C@H](CCc2ccc(C(F)(F)F)c(Cl)c2)NC(=O)CN(C)C(=O)[C@H](CC2CCCCC2)N(C)C(=O)CN(C)C(=O)CN(C)C1=O [Compound 1503] (cyclo([Ac5c][NMeL][d(β3hA)][NMeL]I[Sar][Sar][NMeCha][Sar][hPhe(3-Cl-4-CF3)]P)) | > 0.5 µM
3 | CC[C@H](C)[C@@H]1NC(=O)[C@H](C2CCCC2)N(C)C(=O)C[C@@H](C)NC(=O)[C@H](C(C)C)N(C)C(=O)C2(CCCC2)NC(=O)[C@@H]2CCCN2C(=O)[C@H](CCc2ccc(C(F)(F)F)c(Cl)c2)NC(=O)CN(C)C(=O)[C@H](CC2CCCCC2)N(C)C(=O)[C@@H]2CCN2C(=O)[C@H](C)N(C)C1=O [Compound 570] (cyclo([Ac5c][NMeV][d(β3hA)][NMeGly(cPent)]I[NMeA][Aze][NMeCha][Sar][hPhe(3-Cl-4-CF3)]P)) | > 0.5 µM
4 | CC[C@H](C)[C@@H]1NC(=O)[C@H](C)N(C)C(=O)C[C@@H](C(=O)N2CCCCC2)N(C)C(=O)[C@H](C(C)C)N(C)C(=O)C2(CCCC2)NC(=O)[C@@H]2CCCN2C(=O)[C@H](CCc2ccc(C(F)(F)F)c(Cl)c2)NC(=O)CN(C)C(=O)[C@H](Cc2ccccc2)N(C)C(=O)[C@@H]2CCCN2C(=O)CN(C)C1=O [Compound 1753] ([NMeA]I[Sar]P[NMeF][Sar][hPhe(3-Cl-4-CF3)]P[Ac5c][NMeV][NMeD]-Piperidide; lactam N-11) | > 0.5 µM
5 | CC[C@H](C)[C@@H]1NC(=O)[C@H](CC(C)C)N(C)C(=O)C[C@@H](C(=O)N2CCCCC2)N(C)C(=O)[C@H](CC(C)C)NC(=O)C(C)(C)N(C)C(=O)[C@H](Cc2ccccc2OC(F)(F)F)NC(=O)[C@H](Cc2cccc(I)c2)NC(=O)CN(C)C(=O)[C@H](Cc2ccc(C)cc2)N(C)C(=O)[C@@H]2CCN2C(=O)[C@H](C)N(C)C1=O [Compound 1129] ([NMeL]I[NMeA][Aze][NMePhe(4-Me)][Sar][Phe(3-I)][Phe(2-OCF3)][NMeAib]L[NMeD]-Piperidide; lactam N-11) | > 0.5 µM
6 | CC[C@H](C)[C@@H]1NC(=O)[C@H](CC(C)C)N(C)C(=O)C[C@@H](C(=O)N2CCCCC2)N(C)C(=O)[C@H](CC(C)C)NC(=O)C(C)(C)N(C)C(=O)[C@H](CCc2ccccc2)NC(=O)[C@H](Cc2cccc(I)c2)NC(=O)CN(C)C(=O)[C@H](Cc2ccc(C)cc2)N(C)C(=O)CN(C)C(=O)CN(C)C1=O [Compound 13] ([NMeL]I[Sar][Sar][NMePhe(4-Me)][Sar][Phe(3-I)][hPhe][NMeAib]L[NMeD]-Piperidide; lactam N-11) | > 0.5 µM
7 | CC[C@H](C)[C@@H]1NC(=O)[C@H](CC(C)C)N(C)C(=O)C[C@@H](C)NC(=O)[C@H](C(C)C)N(C)C(=O)C2(CCCC2)NC(=O)[C@@H]2CCCN2C(=O)[C@H](CCc2ccc(C(F)(F)F)c(Cl)c2)NC(=O)CN(C)C(=O)[C@H](Cc2cccc(C#N)c2)N(C)C(=O)CN(C)C(=O)CN(C)C1=O [Compound 975] (cyclo([Ac5c][NMeV][d(β3hA)][NMeL]I[Sar][Sar][NMePhe(3-CN)][Sar][hPhe(3-Cl-4-CF3)]P)) | > 0.5 µM
8 | CC[C@H](C)[C@@H]1NC(=O)[C@H](C(C)C)N(C)C(=O)C[C@@H](C)NC(=O)[C@H](CC(C)C)N(C)C(=O)C2(CCCC2)NC(=O)[C@H](CC(C)C)N(C)C(=O)[C@H](CCc2ccc(C(F)(F)F)c(Cl)c2)NC(=O)CN(C)C(=O)[C@H](Cc2ccc(Cl)cc2)N(C)C(=O)[C@@H]2CCN2C(=O)CN(C)C1=O [Compound 158] (cyclo([Ac5c][NMeL][d(β3hA)][NMeV]I[Sar][Aze][NMePhe(4-Cl)][Sar][hPhe(3-Cl-4-CF3)][NMeL])) | > 0.5 µM
9 | CC[C@H](C)[C@@H]1NC(=O)[C@H](CC(C)C)N(C)C(=O)C[C@@H](C(=O)N(C)C)N(C)C(=O)[C@H]([C@@H](C)CC)N(C)C(=O)[C@H](C)NC(=O)[C@H](CCN2CCCC(F)(F)C2)N(C)C(=O)[C@H](CCc2ccc(C(F)(F)F)c(Cl)c2)NC(=O)CN(C)C(=O)[C@H](Cc2ccc(C)cc2)N(C)C(=O)[C@@H]2CCN2C(=O)[C@H](C)N(C)C1=O [Compound 1135] ([NMeL]I[NMeA][Aze][NMePhe(4-Me)][Sar][hPhe(3-Cl-4-CF3)][NMeAbu(3,3-F2-piperidino)]A[NMeI][NMeD]-NMe2; lactam N-11) | > 0.5 µM
